Measured values taken from ChEMBL document CHEMBL1137086, “Identification of compounds with nanomolar binding affinity for checkpoint kinase-1 using knowledge-based virtual screening” (J Med Chem, 2004).

Molecular target: T1, Serine/threonine-protein kinase Chk1 (Homo sapiens, UniProt O14757)
T1 sequence (O14757 whole entry): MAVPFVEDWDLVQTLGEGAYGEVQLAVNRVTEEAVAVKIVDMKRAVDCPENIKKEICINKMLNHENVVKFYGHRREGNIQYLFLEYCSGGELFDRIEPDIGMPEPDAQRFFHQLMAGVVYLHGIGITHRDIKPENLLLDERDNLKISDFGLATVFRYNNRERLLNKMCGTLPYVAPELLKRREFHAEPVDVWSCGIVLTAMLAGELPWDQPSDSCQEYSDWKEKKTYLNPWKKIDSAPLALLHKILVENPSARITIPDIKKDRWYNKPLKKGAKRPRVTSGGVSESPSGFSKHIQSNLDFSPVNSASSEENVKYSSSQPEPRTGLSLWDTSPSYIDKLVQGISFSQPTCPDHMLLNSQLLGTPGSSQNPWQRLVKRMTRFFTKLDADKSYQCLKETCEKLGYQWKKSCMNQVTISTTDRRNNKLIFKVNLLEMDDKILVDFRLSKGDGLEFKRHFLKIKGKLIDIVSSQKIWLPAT
Assay: Inhibition of checkpoint kinase-1

IC50	Compound
4000 nM	N#Cc1ccc2c(c1)NC(=O)C2c1ncnc2cc(OCCCN3CCOCC3)ccc12 (configuration not stated)
450 nM	COc1ccc(Nc2nc(Nc3ccc(C(=O)O)cc3)ncc2Br)cc1
